One assay concerns IL-1β. As to the kind of experiment: IL-1β protein expression in hippocampal CA1 area (immunoblotting). The assay is classed as in vivo, rat. The following applies: Aβ1-40-injected rats, 15 mg/kg i.p. daily for 14 days. The procedure: (§1) Animals were divided into several groups (40-50 rats per group). The Aβ1-40 group received bilateral intracerebral microinjection of Aβ1-40 fibrils once and saline intraperitoneally (i.p.) daily for 14 days. The Aβ1-40+MDA7 group received bilateral intracerebral microinjection of Aβ1-40 fibrils once and 15 mg/kg MDA7 i.p. daily for 14 days. Other cohorts received smaller doses of MDA7 (5 mg/kg or 1.5 mg/kg) i.p. daily for 14 days to determine the dose-response characteristics for MDA7. In other groups, AM630 (a CB2 antagonist) 5 mg/kg i.p. was administered daily for 14 days either alone (Aβ1-40+AM630 group) or 15 min prior to MDA7 (15 mg/kg i.p.) administration (Aβ1-40+MDA7+AM630 group) to rats injected with β1-40 fibrils. […]
Protein extraction and immunoblotting. […] Protein concentrations were determined by using the Bio-Rad (Hercules, Calif.) protein assay kit.
The samples were treated with SDS sample buffer at 95° C. for 5 min, loaded on a 7.5% SDS-polyacrylamide, gel, and blotted to a nitrocellulose membrane. […] The immunoreactivity was detected using enhanced chemiluminescence (ECL Advance Kit; Amersham Biosciences). The intensity of the bands was captured digitally and analyzed quantitatively with ImageJ software. […]
For orientation: A western blot detects proteins with antibodies after separation by electrophoresis.

The next assay concerns CB2 receptor. As to the kind of experiment: CB2 receptor expression in hippocampal CA1 area (immunostaining, immunoblotting). The assay is classed as in vivo, rat. To be noted: Aβ1-40-injected rats. The procedure: as §1, with “fibrils. MDA7 group and control group received bilateral intracerebral microinjection of artificial cerebrospinal fluid (130 mM NaCl, 2.6 mM KCl. 4.3 mM MgCl2 and 1.8 mM CaCl2) once and 15 mg/kg MDA7 or saline i.p. daily for 14 days, respectively.” for “fibrils.”
Immunostaining. […] Three to six sections from each rat were randomly selected and were analyzed using Leica DMLB fluorescence microscope (Leica Microsystems Wetzlar GmbH, Germany) by one investigator, who was blinded to the origin of tissue being examined. Images were quantified using MCID Core software version 7.0 (InterFocus Imaging Ltd, Cambridge, England). […]

With `CC1(Cc2ccccc2)COc2cc(C(=O)N3CCCCC3)ccc21` (stereo not drawn) [MDA7, 3-benzyl-3-methyl-2,3-dihydrobenzofuran-6-carboxylic acid-piperidine amide], the “IL-1β protein expression (immunoblot)” value in the assay with IL-1β is on record as “significantly attenuated”. The “CB2 receptor expression (immunoblotting)” value in the assay with CB2 receptor (15 mg/kg i.p. daily for 14 days) is recorded as “significantly reversed”. Further, the “CB2 expression (immunofluorescence)” value with CB2 receptor (15 mg/kg i.p. for 14 days, vs saline) was “reduced CB2 expression”.

These data come from patent US11160798B2, “Neuroprotective CB2 receptor agonists” (THE CLEVELAND CLINIC FOUNDATION, priority 2012, dated 2021).
